The values below come from US8410302B2, “Methoxyimino compounds and fungicide composition comprising same” (Kyung Nong Corporation, priority 2007, dated 2013).

Each structure is given as a SMILES string. Read-outs that look alike come from different tables or passages of the source.

The test system of assay [1] is Puccinia recondita. In words: Fungicidal activity against wheat leaf rust (WLR) disease, control value. The class given is in vivo. Conditions: for pest or weed control at 2 ppm / pest or weed control at 10 ppm / pest or weed control at 50 ppm / pest or weed control at 100 ppm: read-out: WLR control value (C.V.).
In assay [2] the test system is Rhizoctonia solani AG-1. In words: Fungicidal activity against rice sheath blight (RSB) disease, control value. Conditions: for pest or weed control at 2 ppm / pest or weed control at 10 ppm / pest or weed control at 50 ppm / pest or weed control at 100 ppm: Rhizoctonia solani, AG1, in Oryza sativa, read-out: RSB control value (C.V.); for RSB control value (C.V.): rice sheath blight.

The subject of assay [3] is Botrytis cinerae. In words: Fungicidal activity against cucumber gray mold rot (CGM) disease, control value. The assay is classed as in vivo. Conditions: 100 ppm; for pest or weed control at 100 ppm: Botrytis, read-out: CGM control value (C.V.).
Assay [4] has as its system Pyricularia oryzae Carvara KA301. In words: whole plant or invertebrate. The assay is classed as in vivo. To be noted: for pest or weed control at 2 ppm / pest or weed control at 10 ppm / pest or weed control at 50 ppm / pest or weed control at 100 ppm: Pyricularia oryzae, read-out: RCB control value (C.V.); for RCB control value (C.V.): rice blast.
Assay [5] relates to Phytophthora infestans. As to the kind of experiment: whole plant or invertebrate. The class given is in vivo. To be noted: for pest or weed control at 2 ppm / pest or weed control at 10 ppm / pest or weed control at 50 ppm / pest or weed control at 100 ppm: Phytophthora infestans, in Solanum lycopersicum, read-out: TLB control value (C.V.); for TLB control value (C.V.): tomato late blight.

For assay [6], the system named is Erysiphae graminis. As to the kind of experiment: Fungicidal activity against barley powdery mildew (BPM) disease, control value. The assay is classed as in vivo. Conditions: for pest or weed control at 2 ppm / pest or weed control at 10 ppm / pest or weed control at 50 ppm / pest or weed control at 100 ppm: 168 h, read-out: BPM control value (C.V.).

Consider `CNC(=O)/C(=N/OC)c1ccccc1COc1ccc(C=C(Br)Br)cc1C` [Example 66, (E)-2-(2-((4-(2,2-dibromovinyl)-2-methylphenoxy)methyl)phenyl)-2-methoxyimino-N-methylacetamide], for which the pest or weed control at 2 ppm was determined as 95% in assay [1] (Puccinia recondita, 2 ppm); 65% in assay [2]; 60% in assay [4]; 75% in assay [5]; 97% in assay [6] (2 ppm). Moreover, the pest or weed control at 10 ppm in assay [1] (Puccinia recondita, 10 ppm) stood at 100%; in assay [2], 98%; in assay [4], 90%; in assay [5] it was 90%; in assay [6] (10 ppm), 100%. For the same molecule, the pest or weed control at 50 ppm in assay [1] (Puccinia recondita, 50 ppm) turned out to be 100%; in assay [2] it was 100%; in assay [4], 100%; in assay [5], 98%; in assay [6] (50 ppm) it was 100%. The pest or weed control at 100 ppm came to 100% in assay [1] (Puccinia recondita, 100 ppm); 100% in assay [2]; 45% in assay [3]; 100% in assay [4]; 100% in assay [5]; 100% in assay [6] (100 ppm).

For the molecule `CNC(=O)/C(=N/OC)c1ccccc1CON=C(C)c1cccc(C=C(Br)Br)c1` [Example 24, (E)-2-[[[[[2-[3-(2,2-dibromovinyl)phenyl](1-methyl)methylidene]amino]oxy]methyl]phenyl]-2-methoxyimino-N-methylacetamide], the “WLR control value (C.V.)” value in assay [1] (2 ppm, wheat leaf rust) was determined as 0%; in assay [1] (10 ppm, wheat leaf rust) it was 35%; in assay [1] (50 ppm, wheat leaf rust) it was 95%; in assay [1] (100 ppm, wheat leaf rust), 98%. The “RSB control value (C.V.)” value in assay [2] (2 ppm) is 30%; in assay [2] (10 ppm), 90%; in assay [2] (50 ppm), 100%; in assay [2] (100 ppm), 100%. The “CGM control value (C.V.)” value in assay [3] (cucumber gray mold rot) worked out at 60%. Besides, the “RCB control value (C.V.)” value in assay [4] (2 ppm) stood at 98%; in assay [4] (10 ppm) it was 100%; in assay [4] (50 ppm) it was 100%; in assay [4] (100 ppm), 100%. For the same molecule, the “TLB control value (C.V.)” value in assay [5] (100 ppm) came to 50%. Also, the “BPM control value (C.V.)” value is on record as 10% in assay [6] (2 ppm, barley powdery mildew); 60% in assay [6] (10 ppm, barley powdery mildew); 90% in assay [6] (50 ppm, barley powdery mildew); 100% in assay [6] (100 ppm, barley powdery mildew).

In the case of `CNC(=O)/C(=N/OC)c1ccccc1COc1ccc(C)cc1C=C(Cl)Cl` [Example 46, (E)-2-(2-((2-(2,2-dichlorovinyl)-4-methylphenoxy)methyl)phenyl)-2-methoxyimino-N-methylacetamide], the pest or weed control at 2 ppm in assay [1] (2 ppm, wheat leaf rust) was 100%; in assay [2] it was 98%; in assay [4] it was 95%; in assay [5] it was 96%; in assay [6] (Hordeum vulgare, 2 ppm, barley powdery mildew), 100%. The pest or weed control at 10 ppm in assay [1] (10 ppm, wheat leaf rust) was 100%; in assay [2], 100%; in assay [4], 100%; in assay [5] it was 100%; in assay [6] (Hordeum vulgare, 10 ppm, barley powdery mildew), 100%. Besides, the pest or weed control at 50 ppm stood at 100% in assay [1] (50 ppm, wheat leaf rust); 100% in assay [2]; 100% in assay [4]; 100% in assay [5]; 100% in assay [6] (Hordeum vulgare, 50 ppm, barley powdery mildew). Further, the pest or weed control at 100 ppm in assay [1] (100 ppm, wheat leaf rust) amounted to 100%; in assay [2], 100%; in assay [3] (cucumber gray mold rot), 30%; in assay [4], 100%; in assay [5] it was 100%; in assay [6] (Hordeum vulgare, 100 ppm, barley powdery mildew), 100%.

Consider `CO/N=C(/C(=O)OC)c1ccccc1CON=C(C)c1cccc(C=C(F)F)c1` [Example 27, methyl-(E)-2-[[[[[2-[3-(2,2-difluorovinyl)phenyl](1-methyl)methylidene]amino]oxy]methyl]phenyl]-2-methoxyiminoacetate], for which the “WLR control value (C.V.)” value stood at 100% in assay [1] (2 ppm, wheat leaf rust); 100% in assay [1] (10 ppm, wheat leaf rust); 100% in assay [1] (50 ppm, wheat leaf rust); 100% in assay [1] (100 ppm, wheat leaf rust). In addition, in assay [2] (100 ppm), the “RSB control value (C.V.)” value came out at 0%. For the same molecule, in assay [3] (cucumber gray mold rot), the “CGM control value (C.V.)” value is reported as 55%. The “RCB control value (C.V.)” value in assay [4] (2 ppm) is recorded as 90%; in assay [4] (10 ppm), 97%; in assay [4] (50 ppm) it was 100%; in assay [4] (100 ppm) it was 100%. In addition, the “TLB control value (C.V.)” value turned out to be 98% in assay [5] (2 ppm), 100% in assay [5] (10 ppm), 100% in assay [5] (50 ppm) and 100% in assay [5] (100 ppm). In addition, the “BPM control value (C.V.)” value in assay [6] (2 ppm, barley powdery mildew) is 98%; in assay [6] (10 ppm, barley powdery mildew), 100%; in assay [6] (50 ppm, barley powdery mildew), 100%; in assay [6] (100 ppm, barley powdery mildew) it was 100%.
